Data taken from patent publication USRE29842E, “Untriakontapeptide with opiate activity” (Hoffmann-La Roche Inc., priority 1977, dated 1978).
No end group written: not given here.

What was measured:
[1] = test system: opiate receptor, guinea pig brain membranes; assay: Opiate agonist activity by receptor binding assay (method of Simon et al.); details: for Percentage of inhibition of stereospecific binding: mean ± standard error from 4 determinations
Method: The opiate agonist activity of natural beta-endophine was determined by the method of Simon et al., Proc. Nat. Acad. Sci. 70, 1947 (1973) using guinea pig brain membranes.

[2] = Hughes et al. Nature 258, 557 (1975); cited from earlier work
rabbit fat cells = assay: Lipolytic activity in rabbit fat cells (procedure of Li et al.); format: cell-based; details: triplicate, mean ± standard error
Text: The lypolytic activity of natural beta-endorphin was compared to the activity of ovine beta-lipotropin hormone in rabbit fat cells using the procedure of Li et al., Arch. Biochem. Biophys. 169, 669 (1975).

Oc1ccc2c3c1O[C@H]1[C@@H](O)C=C[C@H]4[C@@H](C2)NCC[C@@]341 [Normophine, reference compound]
Percentage of inhibition of stereospecific binding ([1]; dose 0.7 (10-^7 M)): 28 ± 0.8 | Percentage of inhibition of stereospecific binding ([1]; dose 7.0 (10-^7 M)): 70 ± 0.9

H-Tyr-Gly-Gly-Phe-Met-OH (H-YGGFM-OH) [pentapeptide isolated from pig brains by Hughes et al]
Opiate agonist activity (in words) [2]: exhibits opiate agonist activity

YGGFMTSEKSQTPLVTLFKNAIIKNAHKKGQ [beta-endorphin]
Lipolytic activity: glycerol production (rabbit fat cells; dose 1.1 (unit not given)): 0.66 ± 0.28 Micromole of glycerol producti | Lipolytic activity: glycerol production (rabbit fat cells; dose 10.0 (unit not given)): 1.42 ± 0.37 Micromole of glycerol producti | Percentage of inhibition of stereospecific binding ([1]; dose 1.0 (10-^7 M)): 60 ± 0.7 | Percentage of inhibition of stereospecific binding ([1]; dose 10.0 (10-^7 M)): 83 ± 0.2 | Potency, times that for normophine on a molar basis ([1]; molar basis): 3.42 times
